The molecules below were run against T1, P70S6K (T412E mutant, Millipore) (Homo sapiens, UniProt P23443, T412E) (assay: p70S6K enzyme assay). Conditions: Table 1; 3 nM P70S6K, 24 μM ATP, 90 min at 25° C.; read-out: p70S6K inhibition (IC50).
T1 construct: purchased Millipore
Type: biochemical
Outline: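 T412E-mutant P70S6K (3 nM) with 24 μM ATP and 1 μM FITC-AHA-AKRRRLSSLRA-OH S6-derived peptide in 100 mM Hepes pH 7.5, 5 mM MgCl2, 1 mM DTT, 0.015% Brij; 90 min at 25° C, EDTA stop. Phosphorylated product and substrate peptide separated and quantified by microfluidic capillary electrophoresis (Caliper LabChip 3000).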

T1 sequence (P23443 whole entry T412E): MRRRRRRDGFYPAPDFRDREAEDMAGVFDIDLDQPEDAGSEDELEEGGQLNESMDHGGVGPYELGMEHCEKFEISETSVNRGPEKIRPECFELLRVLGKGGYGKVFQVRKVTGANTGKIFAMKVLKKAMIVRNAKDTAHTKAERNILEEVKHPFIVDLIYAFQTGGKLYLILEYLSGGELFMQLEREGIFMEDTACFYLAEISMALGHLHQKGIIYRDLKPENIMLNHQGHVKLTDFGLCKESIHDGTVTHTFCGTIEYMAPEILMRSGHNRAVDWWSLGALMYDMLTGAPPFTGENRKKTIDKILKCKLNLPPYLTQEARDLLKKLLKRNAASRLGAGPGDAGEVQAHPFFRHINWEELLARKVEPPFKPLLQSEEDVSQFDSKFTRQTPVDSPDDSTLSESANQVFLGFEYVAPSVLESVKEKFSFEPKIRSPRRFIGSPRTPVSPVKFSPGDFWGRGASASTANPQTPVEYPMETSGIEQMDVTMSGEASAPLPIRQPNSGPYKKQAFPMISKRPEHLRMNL

With O=C(NCc1cccc(Cl)c1)c1occc1Nc1ncnc2[nH]ccc12 [Example 141, 3-(7H-Pyrrolo[2,3-d]pyrimidin-4-ylamino)-furan-2-carboxylic acid 3-chloro-benzylamide] as the molecule, how does the IC50 read?
Its IC50 is under 100 nM.

For O=C(NCCc1cccc(F)c1)c1sccc1Nc1ncnc2[nH]ccc12 [Example 142, 3-(7H-Pyrrolo[2,3-d]pyrimidin-4-ylamino)-thiophene-2-carboxylic acid [2-(3-fluoro-phenyl)-ethyl]-amide], which IC50 is on record?
The IC50 was under 100 nM.

With O=C(NCCc1ccccc1)c1sccc1Nc1ncnc2[nH]ccc12 [Example 143, 3-(7H-Pyrrolo[2,3-d]pyrimidin-4-ylamino)-thiophene-2-carboxylic acid phenethyl-amide] as the molecule, how does the IC50 read?
Its IC50 is under 100 nM.

Which IC50 does the source give for O=C(NCCc1cccc(Cl)c1)c1sccc1Nc1ncnc2[nH]ccc12 [Example 144, 3-(7H-Pyrrolo[2,3-d]pyrimidin-4-ylamino)-thiophene-2-carboxylic acid [2-(3-chloro-phenyl)-ethyl]-amide] here?
Its IC50 is under 100 nM.

For O=C(NCCc1ccc(F)cc1)c1sccc1Nc1ncnc2[nH]ccc12 [Example 145, 3-(7H-Pyrrolo[2,3-d]pyrimidin-4-ylamino)-thiophene-2-carboxylic acid [2-(4-fluoro-phenyl)-ethyl]-amide], which IC50 is on record?
The IC50 was under 100 nM.

O=C(NCCc1ccc(Br)cc1)c1sccc1Nc1ncnc2[nH]ccc12 [Example 146, 3-(7H-Pyrrolo[2,3-d]pyrimidin-4-ylamino)-thiophene-2-carboxylic acid [2-(4-bromo-phenyl)-ethyl]-amide] was tested. Which IC50 did it give?
The IC50 was under 100 nM.

How did the IC50 turn out when Cc1ccccc1CCNC(=O)c1sccc1Nc1ncnc2[nH]ccc12 [Example 147, 3-(7H-Pyrrolo[2,3-d]pyrimidin-4-ylamino)-thiophene-2-carboxylic acid [2-o-tolyl-ethyl)-amide] was run?
The IC50 was under 100 nM.

For O=C(NCCNCc1ccccc1)c1sccc1Nc1ncnc2[nH]ccc12 [Example 148, 3-(7H-Pyrrolo[2,3-d]pyrimidin-4-ylamino)-thiophene-2-carboxylic acid [2-2-benzylamino-ethyl)-amide], which IC50 is on record?
Its IC50 is under 100 nM.

Which IC50 does the source give for O=C(NCCc1ccc(F)cc1)c1sccc1Nc1ccnc2[nH]ccc12 [Example 150, 3-(1H-Pyrrolo[2,3-b]pyridin-4-ylamino)-thiophene-2-carboxylic acid [2-(4-fluoro-phenyl)-ethyl]-amide] here?
The IC50 was under 100 nM.

O=C(NC1CCCNC1)c1sccc1Nc1ncnc2[nH]ccc12 (centres unmarked) [Example 151, 3-(7H-Pyrrolo[2,3-d]pyrimidin-4-ylamino)-thiophene-2-carboxylic acid piperidin-3-ylamide] was tested. Which IC50 did it give?
Its IC50 is under 100 nM.

With Cc1cc(Nc2ncnc3[nH]ccc23)c(C(=O)NCc2cccc(Cl)c2)s1 [Example 152, 5-Methyl-3-(7H-pyrrolo[2,3-d]pyrimidin-4-ylamino)-thiophene-2-carboxylic acid 3-chloro-benzylamide] as the molecule, how does the IC50 read?
Its IC50 is under 100 nM.

CNCCNC(=O)c1sccc1Nc1ncnc2[nH]ccc12 [Example 153, 3-(7H-Pyrrolo[2,3-d]pyrimidin-4-ylamino)-thiophene-2-carboxylic acid (2-methylamino-ethyl)-amide] was tested. Which IC50 did it give?
The IC50 was 100 to 1000 nM.

For CC(C)(C)OC(=O)N1CCCC(NC(=O)c2sccc2Nc2ncnc3[nH]ccc23)C1 (centres unmarked) [Example 154, 3-{[3-(7H-Pyrrolo[2,3-d]pyrimidin-4-ylamino)-thiophene-2-carbonyl]-amino}-piperidine-1-carboxylic acid tert-butyl ester], which IC50 is on record?
Its IC50 is 100 to 1000 nM.

Same assay, conditions: class symbol; 3 nM P70S6K, 24 μM ATP; read-out: IC50 (p70S6K)

How did the IC50 turn out when [N-]=[N+]=NC[C@@H](NC(=O)c1ccsc1Nc1ccnc2[nH]ccc12)c1ccccc1 [Example 114, 2-(1H-Pyrrolo[2,3-b]pyridin-4-ylamino)-thiophene-3-carboxylic acid ((S)-2-azido-1-phenyl-ethyl)-amide] was run?
The IC50 was under 100 nM.

How did the IC50 turn out when N#CC[C@@H](NC(=O)c1sccc1Nc1ccnc2[nH]ccc12)c1ccccc1 [Example 115, 3-(1H-Pyrrolo[2,3-b]pyridin-4-ylamino)-thiophene-2-carboxylic acid ((R)-2-cyano-1-phenyl-ethyl)-amide] was run?
Its IC50 is under 100 nM.

With N#CC(NC(=O)c1ccsc1Nc1ccnc2[nH]ccc12)c1ccccc1 (centres unmarked) [Example 116, 2-(1H-Pyrrolo[2,3-b]pyridin-4-ylamino)-thiophene-3-carboxylic acid (cyano-phenyl-methyl)-amide] as the molecule, how does the IC50 read?
Its IC50 is under 100 nM.

Which IC50 does the source give for CC(C)C[C@@H](CO)NC(=O)c1ccsc1Nc1ccnc2[nH]ccc12 [Example 117, 2-(1H-Pyrrolo[2,3-b]pyridin-4-ylamino)-thiophene-3-carboxylic acid ((S)-1-hydroxymethyl-3-methyl-butyl)-amide] here?
The IC50 was under 100 nM.

Which IC50 does the source give for O=C(N[C@H](CO)Cc1ccccc1)c1ccsc1Nc1ccnc2[nH]ccc12 [Example 118, 2-(1H-Pyrrolo[2,3-b]pyridin-4-ylamino)-thiophene-3-carboxylic acid ((S)-1-hydroxymethyl-2-phenyl-ethyl)-amide] here?
Its IC50 is under 100 nM.

How did the IC50 turn out when O=C(N[C@@H](CO)Cc1ccccc1)c1ccsc1Nc1ccnc2[nH]ccc12 [Example 119, 2-(1H-Pyrrolo[2,3-b]pyridin-4-ylamino)-thiophene-3-carboxylic acid ((R)-1-hydroxymethyl-2-phenyl-ethyl)-amide] was run?
Its IC50 is 100 to 1000 nM.

For NC(=O)C[C@@H](NC(=O)c1sccc1Nc1ccnc2[nH]ccc12)c1ccccc1 [Example 120, 3-(1H-Pyrrolo[2,3-b]pyridin-4-ylamino)-thiophene-2-carboxylic acid ((R)-2-carbamoyl-1-phenyl-ethyl)-amide], which IC50 is on record?
Its IC50 is under 100 nM.

Which IC50 does the source give for Cc1ccc(C(CN)NC(=O)c2ccsc2Nc2ccnc3[nH]ccc23)cc1 (centres unmarked) [Example 126, 2-(1H-Pyrrolo[2,3-b]pyridin-4-ylamino)-thiophene-3-carboxylic acid (2-amino-1-p-tolyl-ethyl)-amide] here?
Its IC50 is under 100 nM.

For COc1cccc(C(CN)NC(=O)c2ccsc2Nc2ccnc3[nH]ccc23)c1 (centres unmarked) [Example 127, 2-(1H-Pyrrolo[2,3-b]pyridin-4-ylamino)-thiophene-3-carboxylic acid [2-amino-1-(3-methoxy-phenyl)-ethyl]-amide], which IC50 is on record?
The IC50 was under 100 nM.

With NCC(NC(=O)c1ccsc1Nc1ccnc2[nH]ccc12)c1ccc(Cl)c(Cl)c1 (centres unmarked) [Example 128, 2-(1H-Pyrrolo[2,3-b]pyridin-4-ylamino)-thiophene-3-carboxylic acid [2-amino-1-(3,4-dichloro-phenyl)-ethyl]-amide] as the molecule, how does the IC50 read?
The IC50 was under 100 nM.

O=C(Nc1cccc(CNC(=O)c2sccc2Nc2ccnc3[nH]ccc23)c1)c1ccnc(Cl)c1 [Example 129, 2-Chloro-N-[3-({[3-(1H-pyrrolo[2,3-b]pyridin-4-ylamino)-thiophene-2-carbonyl]-amino}-methyl)-phenyl]-isonicotinamide] was tested. Which IC50 did it give?
The IC50 was under 100 nM.

How did the IC50 turn out when NCC(NC(=O)c1ccsc1Nc1ccnc2[nH]ccc12)c1cccc(Cl)c1 (centres unmarked) [Example 130, 2-(1H-Pyrrolo[2,3-b]pyridin-4-ylamino)-thiophene-3-carboxylic acid [2-amino-1-(3-chloro-phenyl)-ethyl]-amide] was run?
Its IC50 is under 100 nM.

With CC(NCCNC(=O)c1sccc1Nc1ccnc2[nH]ccc12)c1ccccc1 (centres unmarked) [Example 131, 3-(1H-Pyrrolo[2,3-b]pyridin-4-ylamino)-thiophene-2-carboxylic acid [2-(1-phenyl-ethylamino)-ethyl]-amide] as the molecule, how does the IC50 read?
Its IC50 is under 100 nM.

Which IC50 does the source give for NCC(NC(=O)c1sccc1Nc1ccnc2[nH]ccc12)c1ccc(C(F)(F)F)cc1 (centres unmarked) [Example 132, 3-(1H-Pyrrolo[2,3-b]pyridin-4-ylamino)-thiophene-2-carboxylic acid [2-amino-1-(4-trifluoromethyl-phenyl)-ethyl]-amide] here?
The IC50 was under 100 nM.

Which IC50 does the source give for NCC(NC(=O)c1ccsc1Nc1ccnc2[nH]ccc12)c1ccc(C(F)(F)F)cc1 (centres unmarked) [Example 133, 2-(1H-Pyrrolo[2,3-b]pyridin-4-ylamino)-thiophene-3-carboxylic acid [2-amino-1-(4-trifluoromethyl-phenyl)-ethyl]-amide] here?
Its IC50 is under 100 nM.

With O=C(N[C@H](CN1C(=O)c2ccccc2C1=O)c1ccccc1)c1ccsc1Nc1ccnc2[nH]ccc12 [Example 134, (S)-[3-(1H-Pyrrolo[2,3-b]pyridin-4-ylamino)-thiophene-2-carboxylic acid[2-(1,3-dioxo-1,3-dihydro-isoindol-2-yl)-1-phenyl-ethyl]-amide]] as the molecule, how does the IC50 read?
Its IC50 is under 100 nM.

Which IC50 does the source give for O=C(N[C@H](CN1C(=O)c2ccccc2C1=O)c1ccccc1)c1sccc1Nc1ccnc2[nH]ccc12 [Example 135, (S)-2-(1H-Pyrrolo[2,3-b]pyridin-4-ylamino)-thiophene-3-carboxylic acid[2-(1,3-dioxo-1,3-dihydro-isoindol-2-yl)-1-phenyl-ethyl]-amide] here?
Its IC50 is under 100 nM.

For Cc1ccc(CNCCNC(=O)c2sccc2Nc2ccnc3[nH]ccc23)cc1 [Example 136, 3-(1H-Pyrrolo[2,3-b]pyridin-4-ylamino)-thiophene-2-carboxylic acid [2-(4-methyl-benzylamino)-ethyl]-amide], which IC50 is on record?
Its IC50 is under 100 nM.

Which IC50 does the source give for COc1ccc(CNCCNC(=O)c2sccc2Nc2ccnc3[nH]ccc23)cc1Cl [Example 137, 3-(1H-Pyrrolo[2,3-b]pyridin-4-ylamino)-thiophene-2-carboxylic acid [2-(3-chloro-4-methoxy-benzylamino)-ethyl]-amide] here?
Its IC50 is under 100 nM.

With COC(=O)CNC(=O)c1sccc1Nc1ccnc2[nH]ccc12 [Example 138, {[3-(1H-Pyrrolo[2,3-b]pyridin-4-ylamino)-thiophene-2-carbonyl]-amino}-acetic acid methyl ester] as the molecule, how does the IC50 read?
The IC50 was 100 to 1000 nM.

How did the IC50 turn out when N#CC[C@@H](NC(=O)c1ccsc1Nc1ccnc2[nH]ccc12)c1ccccc1 [Example 139, 2-(1H-Pyrrolo[2,3-b]pyridin-4-ylamino)-thiophene-3-carboxylic acid ((R)-2-cyano-1-phenyl-ethyl)-amide] was run?
The IC50 was under 100 nM.

With NC[C@@H](NC(=O)c1ccsc1Nc1ccnc2[nH]ccc12)c1ccccc1 [Example 140, 2-(1H-Pyrrolo[2,3-b]pyridin-4-ylamino)-thiophene-3-carboxylic acid ((S)-2-amino-1-phenyl-ethyl)-amide] as the molecule, how does the IC50 read?
The IC50 was under 100 nM.
